Measured values published in paper PMC7311426, “An amphipathic peptide with antibiotic activity against multidrug-resistant Gram-negative bacteria” (Nature Communications, 2020).
In brackets after ≈: the same amount, converted by molar mass. Read-outs that look alike come from different tables or passages of the source.

Tests used:
[1] = test system: E. coli ATCC 25922; test: microbe, parasite or virus in culture; type: cell-based, Escherichia coli; parameters: MIC, Survanta (5%) replicates: unit not given beside the values; settings: for MIC, Survanta (5%) replicates: BMD with 5% Survanta lung surfactant
How it was run: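 Broth microdilution MIC in Mueller Hinton broth, 12-point 2-fold series from 128 or 64 down to 0.06 or 0.03 μg mL^−1, 5 × 10^5 CFU mL^−1 inoculum. Read visually after 18-20 h at 37 °C without shaking; n ≥ 6. Additional tests in CAMHB, and in MHB with 1% agarose.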

[2] = test system: P. aeruginosa; test: microbe, parasite or virus in culture; type: cell-based, Pseudomonas aeruginosa; parameters: MIC, Survanta (5%) replicates: unit not given beside the values; settings: for MIC, Survanta (5%) / MIC, Survanta (5%) replicates: BMD with 5% Survanta lung surfactant; for MIC, Survanta (5%): mode, or median where no mode, n=4 to 6, where n=2 differs the higher value; for MIC: Pseudomonas aeruginosa
[3] = test system: A. baumannii ATCC 19636; test: microbe, parasite or virus in culture; type: cell-based, Acinetobacter baumannii
[4] = test system: E. coli ATCC 25922; type: cell-based, Escherichia coli; settings: E. coli ATCC 25922, FDA control strain; BMD with 5% Survanta lung surfactant; mode, or median where no mode, n=4 to 6; where n=2 differs the higher value
[5] = test system: K. pneumoniae; test: microbe, parasite or virus in culture; type: cell-based, Klebsiella pneumoniae; settings: for MIC, Survanta (5%) replicates / MIC, Survanta (5%): BMD with 5% Survanta lung surfactant; for MIC, Serum (50%) replicates / MIC, Serum (50%): BMD with 50% human serum; for MIC: Klebsiella pneumoniae
[6] = test system: E. coli (AID#172 & ATCC 25922); test: microbe, parasite or virus in culture; type: cell-based, Escherichia coli; settings: Escherichia coli
Protocol: (§1) The test media was cation-adjusted MHB (CAMHB, Becton Dickinson) supplemented with 2% Noble Agar (Becton Dickinson) and additionally for AA139 with 0.1% BSA. The agar dilution MIC values were determined as recommended by Clinical and Laboratory Standards Institute (CLSI)[47]. […] The inoculum for the spontaneous mutation plates targeted 10^9 to 10^10 colony-forming units (CFU) per plate. The viable count of each suspension was determined by plating serial ten-fold dilutions onto MHB/NA in duplicate. In addition, agar plates without drug were inoculated as positive controls. Plates were inspected for growth at both 24 and 48 h. Colony counts were determined manually. Using the counts at 48 h, the spontaneous mutation frequency was calculated using the following equation: (average number of colonies from duplicate selection plates)/(total number of cells inoculated onto each plate). If there were no colonies on the antibiotic selection plates, the spontaneous mutation frequency was reported as less than the frequency observed with one colony to indicate that the spontaneous mutation frequency was less than the limit of detection (one CFU).

[7] = test system: P. aeruginosa (UNT138-1 & ATCC 27853); test: microbe, parasite or virus in culture; type: cell-based, Pseudomonas aeruginosa; settings: Pseudomonas aeruginosa, ATCC27853, read-out: Agar (Noble) Dilution MIC, P. aeruginosa ATCC 27853
Protocol: as §1

[8] = test system: K. pneumoniae (#3010 & ST258); test: microbe, parasite or virus in culture; type: cell-based, Klebsiella pneumoniae; settings: Klebsiella pneumoniae, read-out: Agar (Noble) Dilution MIC, K. pneumoniae ST258
Protocol: as §1

[9] = K. pneumoniae ATCC 13883, type strain, replicate 1
[10] = K. pneumoniae ATCC 13883, type strain, replicate 2
[11] = K. pneumoniae ATCC 700603, ESBL, OXA-2/SHV-18, mode, or median where no mode, n=4 to 6, where n=2 differs the higher value
[12] = K. pneumoniae ATCC 700603, ESBL, OXA-2/SHV-18, replicate 1
[13] = K. pneumoniae ATCC 700603, ESBL, OXA-2/SHV-18, replicate 2

For `O=C(O)c1cn(C2CC2)c2cc(N3CCNCC3)c(F)cc2c1=O` [Ciprofloxacin, ciprofloxacin], the “MIC, Survanta (5%) replicates” value ([1]; E. coli ATCC 25922, FDA control strain, replicate 1) was ≤0.03, the “MIC, Survanta (5%) replicates” value ([1]; E. coli ATCC 25922, FDA control strain, replicate 2) was ≤0.03 and the “MIC, Survanta (5%) replicates” value ([1]; E. coli ATCC 25922, FDA control strain, replicate 3) was ≤0.03. The “MIC, Survanta (5%) replicates” value ([1]; E. coli ATCC 25922, FDA control strain, replicate 4) was ≤0.03, the “MIC, Serum (50%)” value ([1]; E. coli ATCC 25922, FDA control strain, BMD with 50% human serum, mode, or median where no mode, n=4 to 6, where n=2 differs the higher value) was ≤0.03 and the “MIC, Serum (50%) replicates” value ([1]; E. coli ATCC 25922, FDA control strain, BMD with 50% human serum, replicate 1) was ≤0.03. The “MIC, Serum (50%) replicates” value ([1]; E. coli ATCC 25922, FDA control strain, BMD with 50% human serum, replicate 2) was ≤0.03, the “MIC, Serum (50%) replicates” value ([1]; E. coli ATCC 25922, FDA control strain, BMD with 50% human serum, replicate 3) was ≤0.03 and the “MIC, Serum (50%) replicates” value ([1]; E. coli ATCC 25922, FDA control strain, BMD with 50% human serum, replicate 4) was ≤0.03. For the same compound, the MIC ([1]; Escherichia coli, ATCC25922, read-out: MIC, SURVANTA (5%), E. coli ATCC 25922, MHB + 5% (v/v) lung surfactant, n=2 to 6, mode or median) was ≤ 0.03 µg/mL, the “MIC, Survanta (5%)” value ([2]; P. aeruginosa ATCC 27853, control strain) was 1 and the “MIC, Survanta (5%) replicates” value ([2]; P. aeruginosa ATCC 27853, control strain, replicate 1) was 1. For the same compound, the “MIC, Survanta (5%) replicates” value ([2]; P. aeruginosa ATCC 27853, control strain, replicate 2) was 1, the “MIC, Survanta (5%) replicates” value ([2]; P. aeruginosa ATCC 27853, control strain, replicate 3) was 0.5 and the “MIC, Survanta (5%) replicates” value ([2]; P. aeruginosa ATCC 27853, control strain, replicate 4) was 0.5. The “MIC, Serum (50%) replicates” value ([2]; P. aeruginosa ATCC 27853, control strain, BMD with 50% human serum, replicate 1) was 0.125, the “MIC, Survanta (5%)” value ([2]; P. aeruginosa FADDI-070, MDR, PmxR) was 0.5 and the “MIC, Survanta (5%) replicates” value ([2]; P. aeruginosa FADDI-070, MDR, PmxR, replicate 1) was 1. The “MIC, Survanta (5%) replicates” value ([2]; P. aeruginosa FADDI-070, MDR, PmxR, replicate 2) was 1, the “MIC, Survanta (5%) replicates” value ([2]; P. aeruginosa FADDI-070, MDR, PmxR, replicate 3) was 0.125 and the “MIC, Survanta (5%) replicates” value ([2]; P. aeruginosa FADDI-070, MDR, PmxR, replicate 4) was 0.5. For the same compound, the “MIC, Serum (50%) replicates” value ([2]; P. aeruginosa FADDI-070, MDR, PmxR, BMD with 50% human serum, replicate 1) was 0.06, the “MIC, Serum (50%) replicates” value ([2]; P. aeruginosa FADDI-070, MDR, PmxR, BMD with 50% human serum, replicate 2) was 0.06 and the “MIC, Serum (50%)” value ([2]; P. aeruginosa FADDI-070, MDR, PmxR, BMD with 50% human serum, where n=2 differs the higher value is recorded) was 0.06. The MIC ([2]; ATCC27853, read-out: MIC, Survanta (5%), P. aeruginosa ATCC 27853 control strain, n=2 to 6, mode or median) was 1 µg/mL (≈ 3.02 µM), the MIC ([2]; read-out: MIC, Serum (50%)) was 0.06 µg/mL (≈ 0.181 µM) and the MIC ([2]; read-out: MIC, Survanta (5%)) was 0.5 µg/mL (≈ 1.51 µM). For the same compound, the “MIC, Survanta (5%)” value ([3]; A. baumannii ATCC 19636, type strain, BMD with 5% Survanta lung surfactant, mode, or median where no mode, n=4 to 6, where n=2 differs the higher value) was 1, the “MIC, Survanta (5%) replicates” value ([3]; A. baumannii ATCC 19636, type strain, BMD with 5% Survanta lung surfactant, replicate 2) was 1 and the “MIC, Survanta (5%) replicates” value ([3]; A. baumannii ATCC 19636, type strain, BMD with 5% Survanta lung surfactant, replicate 3) was 1. For the same compound, the “MIC, Survanta (5%) replicates” value ([3]; A. baumannii ATCC 19636, type strain, BMD with 5% Survanta lung surfactant, replicate 4) was 1, the MIC ([3]; Acinetobacter baumannii, ATCC19636, read-out: MIC, Survanta (5%), A. baumannii ATCC 19636 type strain, n=2 to 6, mode or median) was 1 µg/mL (≈ 3.02 µM) and the “MIC, Survanta (5%)” value [4] was ≤0.03. For the same compound, the “MIC, Survanta (5%) replicates” value [5, 9] was 0.5, the “MIC, Survanta (5%) replicates” value [5, 10] was 0.5 and the “MIC, Survanta (5%) replicates” value ([5]; K. pneumoniae ATCC 13883, type strain, replicate 3) was 0.125. For the same compound, the “MIC, Survanta (5%) replicates” value ([5]; K. pneumoniae ATCC 13883, type strain, replicate 4) was 0.125, the “MIC, Serum (50%) replicates” value [5, 9] was ≤0.03 and the “MIC, Serum (50%) replicates” value [5, 10] was ≤0.03. For the same compound, the “MIC, Serum (50%)” value ([5]; K. pneumoniae ATCC 13883, type strain, where n=2 differs the higher value is recorded) was ≤0.03, the “MIC, Survanta (5%)” value [5, 11] was 1 and the “MIC, Survanta (5%) replicates” value [5, 12] was 2. The “MIC, Survanta (5%) replicates” value [5, 13] was 2, the “MIC, Survanta (5%) replicates” value ([5]; K. pneumoniae ATCC 700603, ESBL, OXA-2/SHV-18, replicate 3) was 0.5 and the “MIC, Survanta (5%) replicates” value ([5]; K. pneumoniae ATCC 700603, ESBL, OXA-2/SHV-18, replicate 4) was 1. For the same compound, the “MIC, Serum (50%)” value [5, 11] was 0.125, the “MIC, Serum (50%) replicates” value [5, 12] was 0.125 and the “MIC, Serum (50%) replicates” value [5, 13] was 0.06. The “MIC, Survanta (5%)” value ([5]; K. pneumoniae BAA-2146, NDM-1, mode, or median where no mode, n=4 to 6, where n=2 differs the higher value) was >64, the “MIC, Survanta (5%) replicates” value ([5]; K. pneumoniae BAA-2146, NDM-1, replicate 1) was >64 and the “MIC, Survanta (5%) replicates” value ([5]; K. pneumoniae BAA-2146, NDM-1, replicate 2) was >64. For the same compound, the “MIC, Survanta (5%) replicates” value ([5]; K. pneumoniae BAA-2146, NDM-1, replicate 3) was >64, the “MIC, Survanta (5%) replicates” value ([5]; K. pneumoniae BAA-2146, NDM-1, replicate 4) was >64 and the MIC ([5]; ATCC13883, read-out: MIC, Serum (50%)) was ≤ 0.03 µg/mL. The MIC ([5]; ATCC700603, read-out: MIC, Serum (50%)) was 0.125 µg/mL (≈ 0.377 µM), the MIC ([5]; ATCC700603, read-out: MIC, Survanta (5%)) was 1 µg/mL (≈ 3.02 µM) and the MIC ([5]; BAA2146, read-out: MIC, Survanta (5%)) was > 64 µg/mL.

`C[C@H]1COc2c(N3CCN(C)CC3)c(F)cc3c(=O)c(C(=O)O)cn1c23` [LEV, levofloxacin, reference compound] showed an MIC ([6]; ATCC25922, read-out: Agar (Noble) Dilution MIC, E. coli ATCC 25922) of 0.03 µg/mL (≈ 0.083 µM), an MIC ([6]; ATCC25922, read-out: Agar (Noble) Dilution MIC, E. coli AUD172) of 8 µg/mL (≈ 22.1 µM) and an MIC [7] of 2 µg/mL (≈ 5.53 µM). For the same compound, the MIC [8] was > 8 µg/mL.
